Laboratory results published in patent publication US20180077929A1, “METHODS AND SYSTEMS FOR TREATING MEDICAL DEVICES AND FLUIDS” (priority 2016, published 2018).
“And” between values parts separate entries of the source, which are not always exact repeats. Equal values may be shown once.

What was measured:
[1] = Suture testing in Ethyl Acetate containing CaSt; format: biochemical; conditions: contaminated suture in Ethyl Acetate w/ 5% Calcium Stearate, 10 seconds; Ethyl Acetate alone 80.4 EU, no submersion 105.6 EU
Method: An absorbable VICRYL® (Polyglactin 910) suture (Size 1, Length: 27 in) made of a copolymer made from 90% glycolide and 10% L-lactide was exposed to a solution containing LPS (endotoxin) (9 Strands of Vicryl suture were immersed in tubing with endotoxin solution (SRW, Concentration: 3980 EU/mL) for 10 minutes at a time at ambient temperature. The sutures were air dried for 20 minutes in a vented chemical hood and then placed in round bottom and dried The suture was then immersed into Ethyl Acetate (EtAc) containing CaSt, vortexed briefly for 10 seconds, dried for 20 minutes in a vented chemical hood, and extracted in endotoxin free water at ambient temperature. The suture extracted in endotoxin free water (LRW) was then tested for LPS using the Kinetic Chromogenic Method for Endotoxin Quantitation, Charles River Laboratories, Charleston S.C.

[2] = Detection of LPS after adding CaSt powder to water spiked with LPS (Kinetic Chromogenic Method, Endosafe MCS); format: biochemical
Method: Water and aqueous solutions (containing LPS with various sources of endotoxin) were exposed to calcium stearate [CaSt] […] 5 mL of water solution of known endotoxin concentration (generated by spiking endotoxin-free water with water solution of known endotoxin concentration) was added to the each test tube, vortexed vigorously (1 minute) using Fisher Scientific Digital Vortex Mixer, and then placed in a warm water bath (37° C.) for 1 hour. After 1 hour, the tubes were removed from warm water bath and vortexed vigorously (1 minute). Sterile syringes with needles were used to extract the solution without removing the calcium stearate. This solution was then tested for endotoxin levels. Kinetic Chromogenic Method for Endotoxin Quantitation, using Endosafe MCS Multi Cartridge System by Charles River Laboratories, Charleston S.C.
The total LPS added to test tubes was about 5 EU, with the detected LPS after the treatment was 3% to 8% of the initial concentration.
The total LPS added to test tubes was about 14400 EU, with the detected LPS after the treatment was 0.07%-0.08% of the initial concentration.
The total LPS added to test tubes was about 14400 EU, with the detected LPS after the treatment was CaSt dependent and was a function of the amount of CaSt added. CaSt addition ranged about 100 fold from 0.0027 g to 0.25 g, with the detected LPS after the treatment was ranging from 77% to 0.19% of respectively as a percent of the initial concentration. […] In summary, there are three factors that drive the stearates performance to remove/neutralize endotoxins. These three factors, not necessarily listed in order of importance, are concentration, time of exposure, and energy in solution at the micro level.

[3] = Animal study: calcium stearate alone dosed intraperitoneally (NC-2); format: in vivo; conditions: NC-2: 0.2 g Calcium Stearate in 5.0 mL normal saline, intraperitoneal, female rats, observed 4 days
Method: An animal study was conducted with 30 female rats with weights ranging from 250-300 g and acclimated for 5 days. All rats were dosed with intraperitoneal injections using 18 gauge needles. The rats were broken into 6 groups. A negative control (NC-1) dosed 5 rats with 5 mL of normal saline solution. […] A positive control (PC-1) dosed 5 rats with 2.5 million EU in a 5 mL saline solution. A second positive control (PC-2) was conducted dosing 5 rats with 5 million endotoxin units in a 5 mL normal saline solution. Two experimental test groups were conducted.
The negative control samples also had no toxicity.

[4] = Suture testing in aqueous suspension of CaSt; format: biochemical
Method: Treatment of sutures in aqueous suspensions of CaSt was performed as follows: Suture used was VICRYL® (Polyglactin 910) suture made of a copolymer made from 90% glycolide and 10% L-lactide, Size 1, 27 inch pieces. Endotoxin sources used were sitting (or stagnant) Rain Water (SRW) and diluted with LRW to obtain a concentration of (3980 EU/mL). Endosafe LAL Reagent Water (LRW) was used, manufactured by Charles River Laboratories, Charleston S.C.
Eight strands of suture were placed in tubing with LPS (endotoxin) solution for 10 minutes at a time. The sutures were dried for 20 minutes and then placed in round bottom tubes. Suspensions of 5% by weight CaSt in LAL Reagent Water were prepared. (0.5 g CaSt in 10 mL LRW). One suture was placed in each tube and vortexed in this solution for approximately 10 seconds. The sutures were removed and allowed to dry for 20 minutes and then placed in round bottom tubes. This was done for 3 sutures. Three pieces of suture, serving as the control, were not submerged in any solutions and placed in test tubes. 3 mL of LAL reagent water was added to each test tube, vortexed vigorously for 1 minute, and then placed in a hot water bath at 37° C. for 1 hour. They were then removed, vortexed vigorously for 1 minute, diluted, and tested on the MCS system. The water that was mixed with the calcium stearate was also tested. Two sutures were submerged in LRW that was mixed with calcium stearate. The LRW was separated from the calcium stearate before two sutures were submerged. These were also tested for endotoxin on the MCS.

[5] = Efficacy of sonicated CaSt suspension stored 1 month; format: biochemical
Method: 10 ml of LRW water (LAL reagent water, contains no endotoxin) containing 0.04 g of CaSt suspension was sonicated using Misonix Probe Sonicator, Model: S-4000, Amplitude: 30, Time: 30 seconds and then the suspension was stored for 1 month at ambient temperature. Then 1 ml of the above suspension was added to 10 ml endotoxin containing water SRW and the resulting endotoxin concentrations in the combined solution measured after 15 min and 30 min, with the results presented in Table 14.

[6] = 0.0027 g CaSt in 5 mL water, 14,400 EU spiked
[7] = 0.0108 g CaSt in 5 mL water, 14,400 EU spiked
[8] = 0.0518 g CaSt in 5 mL water, 14,400 EU spiked
[9] = 0.2502 g CaSt in 5 mL water, 14,400 EU spiked
[10] = 0.254-0.2607 g CaSt powder in 5 mL water, 14,400 EU spiked, 0.254 g CaSt powder added
[11] = 0.254-0.2607 g CaSt powder in 5 mL water, 14,400 EU spiked, 0.2607 g CaSt powder added

Calcium Stearate
Endotoxin Detected [1]: 23.4 EU and 21.78 EU and 25.62 EU | Endotoxin Detected [2, 6]: 11,055 EU | Percent of detected Endotoxin vs. initial concentration [2, 6]: 77% and 76.77% | Endotoxin Detected [2, 7]: 2,925 EU | Percent of detected Endotoxin vs. initial concentration [2, 7]: 20% and 20.31% | Endotoxin Detected [2, 8]: 9.4 EU | Percent of detected Endotoxin vs. initial concentration [2, 8]: 0.07% | Endotoxin Detected [2, 9]: 26.7 EU | Percent of detected Endotoxin vs. initial concentration [2, 9]: 0.19% | Percent of detected Endotoxin vs. initial concentration ([2]; 0.252-0.272 g CaSt powder in 5 mL water, 5.208 EU spiked, 37° C. 1 hour, 0.252 g CaSt powder added): <2.88% | Percent of detected Endotoxin vs. initial concentration ([2]; 0.252-0.272 g CaSt powder in 5 mL water, 5.208 EU spiked, 37° C. 1 hour, 0.258 g CaSt powder added): <8.06% | Percent of detected Endotoxin vs. initial concentration ([2]; 0.252-0.272 g CaSt powder in 5 mL water, 5.208 EU spiked, 37° C. 1 hour, 0.267 g CaSt powder added): <3.46% | Endotoxin Detected [2, 10]: 12.1 EU | Percent of detected Endotoxin vs. initial concentration [2, 10]: 0.08% | Endotoxin Detected [2, 11]: 10.3 EU | Percent of detected Endotoxin vs. initial concentration [2, 11]: 0.07% | Results (toxicity observed) [3]: No Toxicity | Endotoxin Detected ([4]; Water with 5% Calcium Stearate, solution tested after suture removal): <1.0 EU | Average Change in Endotoxin Level ([4]; sutures 4-6 in LAL Water w/5% Calcium Stearate vs. sutures not submerged): −96.1% | Average Endotoxin Detected ([4]; sutures 4-6 in LAL Water w/5% Calcium Stearate, untreated average 84 EU): 3.27 EU | Endotoxin EU/mL (15 min after addition of CaSt suspension) ([5]; 0.04 g CaSt in 10 ml LRW sonicated, stored 1 month, initial endotoxin 732.5 EU/mL, 15 min): 372 EU/mL and 362 EU/mL | Endotoxin EU/mL (30 min after addition of CaSt suspension) ([5]; 0.04 g CaSt in 10 ml LRW sonicated, stored 1 month, initial endotoxin 732.5 EU/mL, 30 min): 384 EU/mL and 278 EU/mL | Percent Endotoxin Removal (15 min) ([5]; sonicated CaSt suspension stored 1 month, 15 min): 49.2% and 50.6% | Percent Endotoxin Removal (30 min) ([5]; sonicated CaSt suspension stored 1 month, 30 min): 47.6% and 62.0%
